In the C3SDB collision cross section collection:

Details: [M+H]+; instrument: TW; Major Mix IMS/Tof Calibration Kit (Waters)

collision cross section (N2) [Å²] | Structure (SMILES)
233 | CC(C)c1c(C(=O)Nc2ccccc2)c(-c2ccccc2)c(-c2ccc(F)cc2)n1CC[C@@H](O)C[C@@H](O)CC(=O)O [Atorvastatin]
175.8 | CN(C)CCc1c[nH]c2ccc(CS(=O)(=O)N3CCCC3)cc12 [Almotriptan]
216.6 | CCC1=C(C)CN(C(=O)NCCc2ccc(S(=O)(=O)NC(=O)NC3CCC(C)CC3)cc2)C1=O (stereo unspecified) [Glimepiride]
192.6 | O=C1Cc2cc(CCN3CCN(c4nsc5ccccc45)CC3)c(Cl)cc2N1 [Ziprasidone]
193.2 | OCCN1CCN(CCCN2c3ccccc3Sc3ccc(Cl)cc32)CC1 [Perphenazine]
183 | COc1cc(CNC(=O)CCCC/C=C/C(C)C)ccc1O [Capsaicin]
187.4 | CCOC(=O)N1CCC(=C2c3ccc(Cl)cc3CCc3cccnc32)CC1 [Loratadine]
164.2 | CNCC[C@@H](Oc1ccccc1C)c1ccccc1 [Atomoxetine]
187.2 | CN(C/C=C/C#CC(C)(C)C)Cc1cccc2ccccc12 [Terbinafine]
167 | CC(C)NCC(O)c1ccc(NS(C)(=O)=O)cc1 (stereo unspecified) [Sotalol]
170.8 | COc1cc(Cc2cnc(N)nc2N)cc(OC)c1OC [Trimethoprim]
184.5 | Cc1ccsc1C(=CCCN1CCC[C@@H](C(=O)O)C1)c1sccc1C [Tiagabine]
208.2 | Cc1cccc(CN2CCN(C(c3ccccc3)c3ccc(Cl)cc3)CC2)c1 (stereo unspecified) [Meclozine]
139.4 | CCOc1ccc(NC(C)=O)cc1 [Phenacetin]
132.4 | Cc1ncc([N+](=O)[O-])n1CCO [Metronidazole]
163.1 | NCCCC12CCC(c3ccccc31)c1ccccc12 [Maprotiline-M N-desmethyl]
200.8 | CCCCC1=NC2(CCCC2)C(=O)N1Cc1ccc(-c2ccccc2-c2nn[nH]n2)cc1 [Irbesartan]
166.9 | COc1ccc2c3c1O[C@H]1C[C@@H](O)C=C[C@@]31CCN(C)C2 [Galantamine]
173.7 | Cc1nccn1CC1CCc2c(c3cccc(O)c3n2C)C1=O (stereo unspecified) [Ondansetron-M 8-hydroxy]
169.6 | COc1ccc(CN(CCN(C)C)c2ccccn2)cc1 [Mepyramine]
169.5 | CCCC1C(=O)N2C(N(C)C)=Nc3ccc(C)cc3N2C1=O (stereo unspecified) [Apazone]
192.6 | CC1=C(CC(=O)O)c2cc(F)ccc2/C1=C\c1ccc(S(C)=O)cc1 (stereo unspecified) [Sulindac]

collision cross section (N2) [Å²] | Structure (SMILES)
183.7 | CN1CCN(CCCN2c3ccccc3Sc3ccc(Cl)cc32)CC1 [Prochlorperazine]
202.9 | OCc1cc([C@@H](O)CNCCCCCCOCCCCc2ccccc2)ccc1O [Salmeterol]
192.7 | COc1cc2nc(N3CCN(C(=O)c4ccco4)CC3)nc(N)c2cc1OC [Prazosin]
176.8 | COc1ccc2c(c1)N(C[C@H](C)CN(C)C)c1ccccc1S2 [Levomepromazine]
140.7 | CN1C(=O)CC[C@H]1c1cccnc1 [Cotinine]
226.9 | CC(C)(C(=O)O)c1ccc(C(O)CCCN2CCC(C(O)(c3ccccc3)c3ccccc3)CC2)cc1 (stereo unspecified) [Fexofenadine]
151 | c1cnc2cc3c(cc2n1)[C@@H]1CNC[C@H]3C1 [Varenicline]
151 | Cc1cc(NS(=O)(=O)c2ccc(N)cc2)no1 [Sulfamethoxazole]
193.7 | O=C(CCCN1CCC(O)(c2ccc(Cl)cc2)CC1)c1ccc(F)cc1 [Haloperidol]
156.3 | COc1ccc2cccc(CCNC(C)=O)c2c1 [Agomelatine]
189.2 | CCC(=O)NS(=O)(=O)c1ccc(-c2c(-c3ccccc3)noc2C)cc1 [Parecoxib]
196.3 | CS(=O)(=O)c1ccc2c(c1)N(CCCN1CCC(C(N)=O)CC1)c1ccccc1S2 [Metopimazine]
174.3 | CN(C)CCCN1c2ccccc2CCc2ccc(Cl)cc21 [Clomipramine]
211.7 | CCc1nn(CCCN2CCN(c3cccc(Cl)c3)CC2)c(=O)n1CCOc1ccccc1 [Nefazodone]
200.8 | O=C(O)COCCN1CCN(C(c2ccccc2)c2ccc(Cl)cc2)CC1 (stereo unspecified) [Cetirizine]
214.6 | Cc1ccc(NC(=O)c2ccc(CN3CCN(C)CC3)cc2)cc1Nc1nccc(-c2cccnc2)n1 [Imatinib]
205.5 | Cc1nc2n(c(=O)c1CCN1CCC(c3noc4cc(F)ccc34)CC1)CCCC2 [Risperidone]
164.5 | CNCCC=C1c2ccccc2CCc2ccccc21 [Triptyline-M nor]
170.9 | CN1C(C(=O)Nc2ccccn2)=C(O)c2ccccc2S1(=O)=O [Piroxicam]
170.6 | CN(C)CCCN1c2ccccc2Sc2ccc(Cl)cc21 [Chlorpromazine]
184.9 | CSc1ccc2c(c1)N(CCC1CCCCN1C)c1ccccc1S2 (stereo unspecified) [Thioridazine]
162.1 | CNS(=O)(=O)Cc1ccc2[nH]cc(CCN(C)C)c2c1 [Sumatriptan]

Structure (SMILES) | collision cross section (N2) [Å²]
CNC(C)Cc1ccc2c(c1)OCO2 (stereo unspecified) [MDMA] | 144.9
CNC(C)C(=O)c1ccc(F)cc1 (stereo unspecified) [Flephedrone] | 139.8
COc1ccc2c3c1O[C@H]1C(=O)CC[C@@]4(O)[C@@H](C2)N(C)CC[C@]314 [Oxycodone] | 168.3
CCC(=O)C(CC(C)N(C)C)(c1ccccc1)c1ccccc1 (stereo unspecified) [Methadone] | 177.7
CN(C)C(=O)Oc1cc(OC(=O)N(C)C)cc(C(O)CNC(C)(C)C)c1 (stereo unspecified) [Bambuterol] | 189.7
CCN(C)C(=O)Oc1cccc([C@H](C)N(C)C)c1 [Rivastigmine] | 165
CN1CC[C@]23c4c5ccc(O)c4O[C@H]2[C@@H](O)C=C[C@H]3[C@H]1C5 [Morphine] | 164
O=C1CN=C(c2ccccc2)c2cc(Cl)ccc2N1 [Diazepam-M N-desmethyl] | 160.1
C/C=C1\N(C)C(C)CC1(c1ccccc1)c1ccccc1 (stereo unspecified) [EDDP] | 166.2
COC(=O)[C@H]1[C@@H](OC(=O)c2ccccc2)C[C@@H]2CC[C@H]1N2C [Cocaine] | 169.8
CN1CCN=C(c2ccccc2)c2cc(Cl)ccc21 [Medazepam] | 160.8
Nc1ccc2c(c1)C(c1ccccc1)=NCC(=O)N2 [Nitrazepam-M 7-amino] | 158.1
COc1ccc2c3c1O[C@H]1C(=O)CC[C@H]4[C@@H](C2)N(C)CC[C@]314 [Hydrocodone] | 167.4
CCCC(C(=O)c1ccc2c(c1)OCO2)N1CCCC1 (stereo unspecified) [MDPV] | 166.7
O=C1C[N+]([O-])=C(c2ccccc2)c2cc(Cl)ccc2N1 [Demoxepam] | 161.7
O=C1Nc2ccc(Cl)cc2C(c2ccccc2Cl)=NC1O (stereo unspecified) [Lorazepam] | 165.8

Structure (SMILES) | collision cross section (N2) [Å²]
O=C1C[C@@H]2OCC=C3CN4CC[C@]56c7ccccc7N1[C@H]5[C@H]2[C@H]3C[C@H]46 [Strychnine] | 172
CO[C@]12CC[C@@]3(C[C@@H]1[C@](C)(O)C(C)(C)C)[C@H]1Cc4ccc(O)c5c4[C@@]3(CCN1CC1CC1)[C@H]2O5 [Buprenorphine] | 209.7
O=C1CN=C(c2ccccc2)c2cc(Cl)ccc2N1CC1CC1 [Prazepam] | 174
CCOC(=O)C(c1ccccc1)C1CCCCN1 (stereo unspecified) [Ethylphenidate] | 159.5
O=C1Nc2ccc(Br)cc2C(c2ccccn2)=NC1O (stereo unspecified) [3-Hydroxybromazepam] | 161
Nc1ccc2c(c1)C(c1ccccc1Cl)=NCC(=O)N2 [Clonazepam-M 7-amino] | 162.5
CCOC(=O)CC(SP(=S)(OC)OC)C(=O)OCC (stereo unspecified) [Malathion] | 165.9
C[C@]12Cc3cn[nH]c3C[C@@H]1CC[C@@H]1[C@@H]2CC[C@@]2(C)[C@H]1CC[C@]2(C)O [Stanozolol] | 188.1
CNC1(c2ccccc2Cl)CCCCC1=O (stereo unspecified) [Ketamine] | 149.2
CN(C)CCc1c[nH]c2cccc(OP(=O)(O)O)c12 [Psilocybine] | 157.3
COc1ccc2c3c1O[C@H]1[C@@H](O)C=C[C@H]4[C@@H](C2)N(C)CC[C@@]341 [Codeine] | 168.2
CN1C(=O)CN=C(c2ccccc2)c2cc(Cl)ccc21 [Diazepam] | 164.2
C[C@@H](N)Cc1c2ccoc2c(Br)c2ccoc12 [Bromodragonfly] | 158.1
CN1C(=O)CC(=O)N(c2ccccc2)c2cc(Cl)ccc21 [Clobazam] | 165.7
O=C1CN=C(c2ccccn2)c2cc(Br)ccc2N1 [Bromazepam] | 159.8
O=C1Nc2ccc(Cl)cc2C(c2ccccc2)=NC1O (stereo unspecified) [Oxazepam] | 162.3
